Assays:
A075L [1] = target: T1, A075L (Paramecium bursaria Chlorella virus 1, UniProt Q89410); assay: ITC; assay type: binding
T1 construct: recombinant in E. coli BL21 Gold (SeMet in B834); GST tag cut with PreScission protease; GST kept only for mutant D73A
T1 sequence (Q89410 1-280): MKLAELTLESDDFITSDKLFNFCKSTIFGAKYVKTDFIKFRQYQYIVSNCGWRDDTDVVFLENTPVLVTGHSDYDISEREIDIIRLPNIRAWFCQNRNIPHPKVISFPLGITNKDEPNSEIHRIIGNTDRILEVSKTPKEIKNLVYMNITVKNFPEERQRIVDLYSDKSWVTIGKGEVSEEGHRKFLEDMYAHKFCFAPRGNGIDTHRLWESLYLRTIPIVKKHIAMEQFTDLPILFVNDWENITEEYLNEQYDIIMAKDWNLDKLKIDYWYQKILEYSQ

A075L [2] = target: T1, A075L; assay: STD-NMR; assay type: binding; details: 1:40 enzyme-acceptor ratio; 25 °C; binds but is not glycosylated

Row | SMILES | Kd (A075L [1]) | STD-NMR (A075L [2])
1 | O=c1ccn([C@@H]2O[C@H](COP(=O)(O)OP(=O)(O)O[C@H]3OC[C@@H](O)[C@H](O)[C@H]3O)[C@@H](O)[C@H]2O)c(=O)[nH]1 [compound 1, UDP‐α‐D‐Xyl] | 31 µM | –
2 | CCCCCCCCO[C@@H]1O[C@@H](C)[C@@H](O)[C@@H](O)[C@@H]1O[C@H]1O[C@H](CO)[C@H](O)[C@H](O)[C@H]1O [compound 5, α‐D‐Gal‐(1 → 2)‐α‐L‐Fuc‐Octyl] | – | despite their lower reactivity, both disaccharides can be accommodated in the binding site

— publication PMC11571054, “Unveiling the GT114 family: Structural characterization of A075L, a glycosyltransferase from Paramecium bursaria chlorella virus‐1 (PBCV‐1)” (Protein Science : A Publication of the Protein Society, 2024)
